Results reported in ChEMBL document CHEMBL5046324, “Small-Molecule Inhibitor of the Oncogenic KRASG12C Mutant for the Treatment of Currently Incurable Cancer” (ACS Med Chem Lett, 2022).

Experiments:
GTPase KRas [1] = target: T1, GTPase KRas (Homo sapiens, UniProt P01116, G12C); experiment: Inhibition of KRAS G12C mutant in human HCC1171 cells assessed as effect on cell alkylation measured after 18 hrs by western blot analysis; format: cell-based
GTPase KRas [2] = target: T1, GTPase KRas; experiment: Inhibition of KRAS G12C mutant (2 to 188 residues) (unknown origin) expressed in Escherichia coli assessed as inhibition of SOS mediated nucleotide exchange at 4 degreeC for 18 hrs by HTRF assay
GTPase KRas [3] = target: T1, GTPase KRas; experiment: Inhibition of KRAS G12C mutant (2 to 188 residues) (unknown origin) expressed in Escherichia coli assessed as inhibition of SOS mediated nucleotide exchange at 21 degreeC for 15 mins by HTRF assay
GTPase KRas [4] = target: T1, GTPase KRas; experiment: Inhibition of KRAS G12C mutant (2 to 188 residues) (unknown origin) expressed in Escherichia coli assessed as inhibition of SOS mediated nucleotide exchange measured after 18 hrs by HTRF assay

Row | SMILES | EC50 (GTPase KRas [1]) [nM] | IC50 (GTPase KRas [4]) [nM] | IC50 (GTPase KRas [2]) [nM] | IC50 (GTPase KRas [3]) [nM]
1 | C=CC(=O)N1CCN(c2nc(OC[C@@H]3CCCN3C)nc3c2CCC2(CCc4ccccc4C2)C3)C[C@@H]1CC#N (stereo partly specified) |  |  | 46 | 142
2 | C=CC(=O)N1CCN(c2nc(OC[C@@H]3CCCN3C)nc3c2CC[C@]2(CCc4ccccc4C2)C3)C[C@@H]1CC#N |  |  | 60 | 131
3 | C=CC(=O)N1CCN(c2nc(OC[C@@H]3CCCN3C)nc3c2CC[C@@]2(CCc4ccccc4C2)C3)C[C@@H]1CC#N |  |  | 51 | 291

More lines, main results first:

Row | EC50 (GTPase KRas [1]) [nM] | IC50 (GTPase KRas [4]) [nM] | SMILES | IC50 (GTPase KRas [2]) [nM] | IC50 (GTPase KRas [3]) [nM]
4 | < 6.1 |  | C=CC(=O)N1CCN(c2nc(OC[C@@H]3CCCN3C)nc3c2C[C@@H](C)[C@H](c2cc(O)cc4ccccc24)C3)[C@@H](C)C1 |  | 
5 | 40 | 11 | C=CC(=O)N1CCN(c2nc(OC[C@@H]3C[C@H](F)CN3C)nc3c2C[C@@H](C)[C@H](c2cc(O)cc4ccccc24)C3)[C@@H](C)C1 |  | 
6 | 3000 | 470 | C=CC(=O)N1CCN(c2nc(OCc3cn(C)cn3)nc3c2CC[C@H](c2cc(O)cc4ccccc24)C3)[C@@H](C)C1 |  | 
